# Literature values as cited in US11904118B2, “Drug delivery medical device” (Micell Medtech Inc., priority 2010, dated 2024).
# Molecular target: FKBP12 (Homo sapiens, UniProt P62942)
# Sequence (P62942 whole entry, species assumed): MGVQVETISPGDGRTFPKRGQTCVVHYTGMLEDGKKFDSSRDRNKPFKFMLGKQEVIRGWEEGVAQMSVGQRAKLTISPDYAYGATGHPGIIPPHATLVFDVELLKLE
FKBP12 binding,FKBP12 binding (nM),SMILES
1.8 to 2.6 nM,–,"CO[C@H]1C[C@@H]2CC[C@@H](C)[C@@](O)(O2)C(=O)C(=O)N2CCCC[C@H]2C(=O)O[C@H]([C@H](C)C[C@@H]2CC[C@@H](OCCO)[C@H](OC)C2)CC(=O)[C@H](C)/C=C(\C)[C@@H](O)[C@@H](OC)C(=O)[C@H](C)C[C@H](C)/C=C/C=C/C=C/1C [Everolimus, 40-O-(2-Hydroxyethyl)rapamycin]"
–,about 1.2 nM,CC[C@@H]1/C=C(\C)C[C@H](C)C[C@H](OC)[C@H]2O[C@@](O)(C(=O)C(=O)N3CCCC[C@H]3C(=O)O[C@H](/C(C)=C/[C@@H]3CC[C@H](Cl)[C@H](OC)C3)[C@H](C)[C@@H](O)CC1=O)[C@H](C)C[C@@H]2OC [Pimecrolimus]
0.2 to 0.4 nM,–,C=CC[C@@H]1/C=C(\C)C[C@H](C)C[C@H](OC)[C@H]2O[C@@](O)(C(=O)C(=O)N3CCCC[C@H]3C(=O)O[C@H](/C(C)=C/[C@@H]3CC[C@@H](O)[C@H](OC)C3)[C@H](C)[C@@H](O)CC1=O)[C@H](C)C[C@@H]2OC [Tacrolimus]
–,about the same as Sirolimus,"CO[C@H]1C[C@@H]2CC[C@@H](C)[C@@](O)(O2)C(=O)C(=O)N2CCCC[C@H]2C(=O)O[C@H]([C@H](C)C[C@@H]2CC[C@@H](OC(=O)C(C)(CO)CO)[C@H](OC)C2)CC(=O)[C@H](C)/C=C(\C)[C@@H](O)[C@@H](OC)C(=O)[C@H](C)C[C@H](C)/C=C/C=C/C=C/1C [Temsirolimus, 42-[3-hydroxy-2-(hydroxymethyl)-2-methylpropanoate]rapamycin]"
2.0 to 3.2 nM,–,CO[C@H]1C[C@@H]2CC[C@@H](C)[C@@](O)(O2)C(=O)C(=O)N2CCCC[C@H]2C(=O)O[C@H]([C@H](C)C[C@@H]2CC[C@H](n3cnnn3)[C@H](OC)C2)CC(=O)[C@H](C)/C=C(\C)[C@@H](O)[C@@H](OC)C(=O)[C@H](C)C[C@H](C)/C=C/C=C/C=C/1C [Zotarolimus]
